Data published in PubChem BioAssay AID179 (DTP/NCI, 2004).
Activity calls are given as the source filed them.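 The calls were made as follows: active = compounds giving half or more protection of infected cells from virus-caused growth loss, again on retest; inactive = the rest.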 Where a SMILES comes first, the peptide text is derived from it.

System: CEM cells HIV-1 protection, formazan growth assay
Assay: NCI AIDS Antiviral Assay
Conditions: for IC50: measured here: growth of uninfected CEM cells
Summary of the method: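 Human CEM cells, uninfected and HIV-1-infected, received five drug concentrations, and growth was read by soluble formazan assay. Compounds giving at least 50% protection were retested; reproducible 100% protection defined confirmed active.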

| Structure (SMILES) | EC50 [µM] | IC50 [µM] | outcome |
| --- | --- | --- | --- |
| CC1(C)OC(=O)C(=Cc2ccc(C#N)cc2)C(=O)O1 | > 513 | 2.29 | – |
| O=NN(O)c1ccccc1.O=NN(O)c1ccccc1.[Cu] | – | – | inactive |
| Clc1ccc(OCc2nnc3n2N=C(c2ccc(Br)cc2)CS3)cc1 | – | – | inactive |
| CCOC(=O)N(C)C(=C(F)F)C(F)(F)F | > 200 | > 200 | – |
| O=C(CO[N+](=O)[O-])OCC(=O)c1ccccc1 | – | – | inactive |
| O=C1OCCOCCOC(=O)c2cccc(n2)C(=O)OCCOCCOC(=O)c2cccc1n2 | > 525 | > 525 | – |
| Cc1ccc(C(=O)O)c(/C=C2\Cc3ccc(C)cc3C2=O)c1 | > 200 | 97.7 | – |
| CCc1cccc(C(C)(C)C)c1NC(=S)NC=C(C#N)C#N | > 200 | 145 | – |
| Nc1n[n+]([O-])c2cnccc2[n+]1[O-] | > 200 | 70.8 | – |
| O=C1C2C3CCC(C3)C2C(=O)C2C3CCC(C3)C12 (stereo not drawn) | > 200 | 186 | – |
| NNC(=O)C1C2c3ccccc3C(c3ccccc32)C1C(=O)NN (stereo not drawn) | > 200 | > 200 | – |
| CC(C)Oc1ccc(CNC2=NCCO2)c2ccccc12 | > 200 | 17.8 | – |
| O=c1cc2ccccc2nn1Cc1ccccc1Cl | > 251 | > 251 | – |
| NC(CCP(=O)(O)CCC1C=CC=CC1)C(=O)O (stereo not drawn) | > 200 | > 200 | – |
| Cc1c(O)c(OC2OC(CO)C(O)C(O)C2O)cc2c1CC[C@@H]1C2(C)C(=O)C[C@]2(C)[C@@H]([C@@](C)(O)C(O)CCC(C)(C)O)[C@H](O)C[C@@]12C (stereo partly drawn) | > 200 | > 200 | – |
| O=c1[nH]nc2ccccc2c1Cl | > 39.8 | 6.76 | – |
| O=C1c2ccccc2-c2ccccc2C(=O)C1(Br)Br | – | – | inactive |
| COc1cc(/C=C2/SC(=S)NC2=O)cc(OC)c1O | – | – | inactive |
| c1ccc(N=C(Nc2ccccc2)N2CCCC2)cc1 | > 200 | 174 | – |
| CCCCS/C(=C(/C#N)C(N)=O)c1cc2c([nH]1)CCCC2 | – | – | inactive |
| Cc1ccc(C(=O)Nc2ccc(CP(=O)(O)O)cc2)cc1NC(=O)c1cccc(NC(=O)Nc2cccc(C(=O)Nc3cc(C(=O)Nc4ccc(CP(=O)(O)O)cc4)ccc3C)c2)c1 | 16.6 | 50.1 | – |
| C=C1CN(S(=O)(=O)c2ccc(C)cc2)CCCCN(Cc2ccccc2)CCCN(S(=O)(=O)c2ccc(C)cc2)C1 | > 200 | 6.92 | – |
| CC(C)CC(NC(=O)C(Cc1ccc(O)cc1)NC(=O)CNC(=O)C(N)CCC(=O)O)C(=O)NC(Cc1c[nH]c2ccccc12)C(=O)O (stereo not drawn) (H-EGYLW-OH; configuration not given here) | – | – | inactive |
| C=C1C(=O)OC2C3C(=C)[C@@H](OC(C)=O)CC3C(C)=CC(OC(=O)C(C)(OC(C)=O)C(C)OC(C)=O)[C@@H]12 (stereo partly drawn) | > 200 | 10.2 | – |

| Structure (SMILES) | EC50 [µM] | IC50 [µM] | outcome |
| --- | --- | --- | --- |
| N#CCCN(CCC#N)c1ccc(/C=C2\N=C(c3ccccc3)N(c3ccccn3)C2=O)cc1 | > 200 | > 200 | – |
| O=C1OC(C2Cc3ccccc3C2=O)c2ccccc21 (stereo not drawn) | > 200 | 186 | – |
| CCCCNC(=O)OCCN=c1c2ccccc2ccc2ccccc12 | > 200 | > 200 | – |
| CC#CCOC(=O)c1ccccc1OC(C)=O | > 200 | > 200 | – |
| COc1ccc(CCC2c3cc(OC)c(OC)cc3CCN2C)cc1OC (stereo not drawn) | > 676 | 240 | – |
| CCCCCCCCCCCCCCCCCC(=O)OCCO | – | – | inactive |
| COc1ccc(NC(C)=O)cc1N1C(=O)/C(=C\c2cc(OC)c(OC)c(OC)c2)S(=O)(=O)C1c1ccccc1 (stereo not drawn) | > 200 | 91.2 | – |
| C1OCN2CSCC12 (stereo not drawn) | > 1910 | 110 | – |
| CCN(CC)CCn1nc(N)c2nc3ccccc3nc21 | > 200 | 107 | – |
| Nc1nc2c(-c3ccc([N+](=O)[O-])cc3)nnn2c2cccc(Cl)c12 | > 3.98 | > 3.98 | – |
| Cc1ccc(NC(=O)CCC(=O)C2CC(=O)CCC2=O)cc1C (stereo not drawn) | > 794 | > 794 | – |
| N#C/C(=C\c1ccc(O)c(O)c1)C(=O)c1ccc(O)c(O)c1 | > 200 | 51.3 | – |
| CCCCCCCCCCCC[N+](CCCCCCCCCCCC)=C1SCCS1 | – | – | inactive |
| COc1c(C(C)C)cc(O)c2c1CCC1C(C)=C(C(=O)O)CCC21C (stereo not drawn) | > 200 | 110 | – |
| CCc1cccc(C)c1NC(=O)CC1C(=O)Nc2ccccc2S1=O (stereo not drawn) | – | – | inactive |
| COc1ccc(-c2nnc3cc(C)n4nnnc4n23)cc1OC | > 200 | > 200 | – |
| O=[N+]([O-])c1ccccc1N=Cc1ccccc1O | > 200 | > 200 | – |
| CC12c3c4cc(Br)cc3Oc3cc(Br)cc(c31)Oc1cc(Br)cc(c12)O4 | > 200 | 33.1 | – |
| O=C(O)[C@H](Cc1ccccc1)NCCN1CCC[C@H]1C(=O)O | > 200 | > 200 | – |
| O=c1[nH]c(Nc2nc3ccccc3[nH]2)nc(O)c1-c1ccccc1 | 162 | > 200 | – |
| N#CC1(C#N)C2(c3ccccc3)OC(c3ccccc3)(c3cc4ccccc4cc32)C1(C#N)C#N | – | – | inactive |
| CC(Oc1ccc(OCC2CCCCC2)cc1)C(=O)O (stereo not drawn) | > 468 | 457 | – |
| COc1cc2c(c(OC)c1OC)CCNC2C1=C(O)COC1=O (stereo not drawn) | – | – | inactive |
| N#Cc1c(N)oc(-c2cccc([N+](=O)[O-])c2)c1C#N | > 200 | 10.7 | – |

| Structure (SMILES) | EC50 [µM] | IC50 [µM] | outcome |
| --- | --- | --- | --- |
| N#Cc1sc2nc3c(c(-c4ccccc4)c2c1N)CCCC3 | – | – | inactive |
| CC/C(=C(\c1ccccc1)c1ccc(OCCN(C)C)cc1)c1ccccc1 | > 83.2 | 14.8 | – |
| C/C=C/C(=O)[O-].C/C=C/C(=O)[O-].N.N.N.N.[Co+3].[O-][Cl+3]([O-])([O-])[O-] | – | – | inactive |
| O=[N+]([O-])C1=C(c2ccccc2)SC=C(c2ccccc2)S1 | > 200 | 9.77 | – |
| CC(=O)OC1CC2CC(=O)CC1N2C (stereo not drawn) | > 200 | > 200 | – |
| CC1(c2nc3ccccc3[nH]2)CCC(C(N)=O)C(C)(C)O1 (stereo not drawn) | > 200 | > 200 | – |
| CCOC(=O)N1Cc2ccoc2C1 | > 75.9 | > 75.9 | – |
| CCOC(=O)/C=C/c1ccccc1Cl | > 33.9 | > 33.9 | – |
| CN(C)CCn1c(=O)c2ccc(NCCNCCO)c3c(=O)c4cc(O)ccc4n(c1=O)c23 | > 2 | 0.407 | – |
| CSCCCS/C1=C/CCCCCCCCCC1 | > 200 | > 200 | – |
| O=C(/C=C/c1ccc(Cl)cc1)c1ccc(Cl)c(Cl)c1 | > 32.4 | > 32.4 | – |
| CC1N=C(SCC(=O)c2ccc(F)cc2)N2C(C)N=C(SCC(=O)c3ccc(F)cc3)N12 (stereo not drawn) | > 75.9 | > 75.9 | – |
| O=C(NCc1ccc(O)cc1O)c1ccccc1O | > 200 | 138 | – |
| Oc1ccc(SCc2cc(O)ccc2O)cc1 | > 200 | 7.08 | – |
| S=C=Nc1ccc(CSc2nc3ccccc3[nH]2)cc1 | – | – | inactive |
| O=C(N/N=C(/c1nc2ccc(Cl)cc2[nH]c1=O)C(O)c1ccc(Cl)cc1Cl)c1ccncc1 (stereo not drawn) | > 501 | 162 | – |
| CC1CCc2c(sc3ncnc(N/N=C/c4ccc(Cl)c(Cl)c4)c23)C1 (stereo not drawn) | > 25.7 | > 25.7 | – |
| CC(=O)C(N1CCCCC1)C(O)(C(F)(F)F)C(F)(F)F (stereo not drawn) | > 200 | 91.2 | – |
| Cc1ccc(NC(=O)SCCC(=O)O)cc1 | – | – | inactive |
| CC(C)(C)c1cc(C2COC(c3cc(C(C)(C)C)c(O)c(C(C)(C)C)c3)CO2)cc(C(C)(C)C)c1O (stereo not drawn) | > 50.1 | > 50.1 | – |
| C/C(CC(=O)Nc1ccc(Cl)c(Cl)c1)=N/NC(=O)C[n+]1ccccc1 | > 162 | > 162 | – |
| O=c1ccc(-c2ccc(-n3ccnc3)cc2)nn1CCO | > 200 | > 200 | – |
| Cc1cc(-c2ccc(N=Nc3cc(S(=O)(=O)O)c4cccnc4c3O)c(C)c2)ccc1N=Nc1cc(S(=O)(=O)O)c2cccnc2c1O | 60.3 | 85.1 | – |
| CC(=O)c1sc2c(c1OC(=O)c1cccs1)c(=O)n(-c1ccccc1)c(=S)n2-c1ccccc1 | > 200 | 3.8 | – |

| Structure (SMILES) | EC50 [µM] | IC50 [µM] | outcome |
| --- | --- | --- | --- |
| Brc1ccc2nc(-c3ccccc3)c3ccccc3c2c1 | > 200 | > 200 | – |
| Clc1ccc(/C=C/c2nc3ccccc3s2)cc1Cl | > 200 | 83.2 | – |
| NC1=NS(=O)(=O)Nc2nn(-c3ccccc3)nc21 | > 339 | > 339 | – |
| Oc1c(C2=NNC(c3ccc(Cl)cc3Cl)C2)ccc2ccccc12 (stereo not drawn) | > 200 | 32.4 | – |
| NC(=S)NNc1c([N+](=O)[O-])cnn(-c2ccccc2)c1=O | > 58.9 | 0.324 | – |
| COc1ccc(C[C@H]2COC(=O)[C@@H]2Cc2ccc3c(c2)OCO3)cc1OC | > 200 | 19.1 | – |
| CC12C(=O)OC(=O)C1(C)C1C=CC2O1 (stereo not drawn) | > 200 | 132 | – |
| O=C(O)[C@@H]1CSC(C(O)CO)N1 (stereo partly drawn) | > 200 | > 200 | – |
| Cc1cc2c(C(C)C)c(O)c(O)c3coc(/c1=c1/c(C)cc4c(C(C)C)c(=O)c(=O)c5coc1c45)c32 | > 53.7 | 8.91 | – |
| Nc1nc(Cl)c2ncn(C3C=CC(O)CC3)c2n1 (stereo not drawn) | > 933 | 52.5 | – |
| Cc1nc2sc(C)c(C)c2c(=O)o1 | > 200 | 95.5 | – |
| CC1=C(C)SC(=C2Sc3c(n(C)c(=O)[nH]c3=O)S2)S1 | > 200 | > 200 | – |
| Cc1cc(C)c(C)c(C(=O)OCC(C)(C)C)c1C | > 200 | 110 | – |
| C(=NCCSSCCN=Cc1ccccc1)c1ccccc1 | > 200 | 38.9 | – |
| CSc1ccc2nncc(SC)c2c1 | > 158 | 57.5 | – |
| CCN(CC)CCNc1ccc2ncn3c4cc(OC)c(OC)c(=O)c4c(O)c1c23 | > 50.1 | 0.589 | – |
| Cc1ccc2c(c1)SC(c1cc3c(cc1Br)OCO3)S2 (stereo not drawn) | > 50.1 | > 50.1 | – |
| CCC1(O)C(=O)Nc2ccc(OC)cc2C1=O (stereo not drawn) | – | – | inactive |
| Cc1c(CN)c(C)c(CN)c(C)c1CN | > 200 | 97.7 | – |
| CC(Cl)(/C=C/Cl)C(Cl)/C=C/C(Cl)(CCl)CBr (stereo not drawn) | – | – | inactive |
| c1csc(-c2cc(-c3ccsc3)cs2)c1 | > 200 | > 200 | – |
